Test results published in patent US20100222349A1, “QUINOLINE DERIVATIVES USED TO TREAT INFLAMMATORY AND ALLERGIC DISEASES” (Glaxo Group Limited, priority 2007, published 2010).

How the values were obtained:
human H1 receptor [1] = target: T1, human H1 receptor (Homo sapiens, UniProt P35367); assay: Histamine H1 functional antagonist assay: determination of functional pKi values (FLIPR); type: cell-based; conditions: CHO cells expressing human H1 receptor, histamine at EC80, read-out: average pKi (pKb) at H1 (converted)
T1 construct: expressed in transfected cells
Method in brief: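 CHO cells stably expressing human H1 receptor, loaded with Fluo-4 for 60 min, then preincubated with compound 30 min at 37° C in Tyrodes buffer with probenecid, pH 7.40. Histamine added at EC80; suppression of calcium fluorescence on FLIPR gives functional affinity from concentration-effect curves.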

human H1 receptor [2] = target: T1, human H1 receptor; assay: Histamine H1 functional antagonist assay: determination of antagonist pA2 (FLIPR); type: cell-based; conditions: histamine H1 receptor expressing CHO cells, histamine concentration response curves
Experimental: (§1) The human H1 receptor is cloned using known procedures described in the literature [Biochem. Biophys. Res. Commun., 201(2):894 (1994)]. Chinese hamster ovary (CHO) cells stably expressing the human H1 receptor are generated according to known procedures described in the literature [Br. J. Pharmacol., 117(6):1071 (1996)].
The histamine H1 receptor expressing CHO cells are seeded into non-coated black-walled clear bottom 96-well tissue culture plates as described above.
Following overnight culture, growth medium is removed from each well, washed with 200 μl PBS and is replaced with 50 μl loading dye (250 μM Brilliant Black, 1 μM Fluo-4 diluted in Tyrodes buffer+probenecid (145 mM NaCl, 2.5 mM KCl, 10 mM HEPES, 10 mM D-glucose, 1.2 mM MgCl2, 1.5 mM CaCl2, 2.5 mM probenecid, pH adjusted to 7.40 with NaOH 1.0 M)). Cells are incubated for 45 min at 37° C. The loading buffer is removed and the cells are washed as above, and 90 μl of Tyrodes buffer+probenecid is added to each well. 10 μl of test compound, diluted to the required concentration in Tyrodes buffer+probenecid (or 10 μl Tyrodes buffer+probenecid as a control) is added to each well and the plate is incubated for 30 min at 37° C., 5% CO2.
The plates are then placed into a FLIPR™ (Molecular Devices, UK) to monitor cell fluorescence (λex=488 nm, λEM=540 nm) in the manner described in Sullivan et al., (In: Lambert DG (ed.), Calcium Signaling Protocols, New Jersey: Humana Press, 1999, 125-136) before and after the addition of 50 μl histamine over a concentration range of 1 mM-0.1 nM. The resultant concentration response curves are analysed by non-linear regression using a standard four parameter logistic equation to determine the histamine EC50, the concentration of histamine required to produce a response of 50% of the maximum response to histamine. The antagonist pA2 is calculated using the following standard equation: pA2=[…] where DR=dose ratio, defined as EC50antagonist-treated/EC50control and [B]=concentration of antagonist.

histamine H3 receptor = target: T2, histamine H3 receptor (Homo sapiens, UniProt Q9Y5N1); assay: Histamine H3 functional antagonist assay (GTPγS, membranes); type: biochemical; conditions: CHO K1 membranes, [35S]-GTPγS, histamine at EC80; read-out: average pKi (pKb) at H3 (converted)
T2 construct: expressed in transfected cells; host or cells: CHO K1 cells with pSwitch/pGeneH3 (GeneSwitch, mifepristone-induced), clone 3H3; membrane preparation
Method in brief: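 Membranes came from CHO K1 cells with mifepristone-inducible (10 nM, 18 h) human H3 receptor expression, clone 3H3. Test compounds in DMSO were combined with WGA polystyrene LeadSeeker SPA beads, membranes and GDP.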

human H1 receptor [3] = target: T1, human H1 receptor; assay: Histamine H1 functional antagonist assay: antagonist duration; type: cell-based; conditions: at one or more time points, after washout
Experimental: as §1
To determine the antagonist duration, cells are cultured overnight in non-coated black-walled clear bottom 96-well tissue culture plates, are washed with PBS and are incubated with a concentration of antagonist chosen to give an approximate DR in the range 30-300. Following the 30 min antagonist incubation period, the cells are washed two or three times with 200 μl of PBS and then 100 μl Tyrodes buffer is added to each well to initiate antagonist dissociation. Following incubation for predetermined times, typically 30-270 min at 37° C., the cells are then washed again with 200 μl PBS and are incubated with 100 μl Tyrodes buffer containing Brilliant Black, probenecid and Fluo-4 for 45 min at 37° C., as described above. After this period, the cells are challenged with histamine in the FLIPR™ as described above. The dose ratio at each time point is used to determine the fractional H1 receptor occupancy by the following equation: fractional receptor occupancy=(DR-1)/DR. The decrease in receptor occupancy over time approximates to a straight line and is analysed by linear regression. The slope of this straight line fit is used as an index of the dissociation rate of the antagonist. The dose ratios for antagonist treated cells and for antagonist treated and washed cells at each time point are used to calculate a relative dose ratio (rel DR) which is also used as an index of antagonist duration. Antagonists with long duration of action produce rel DR values close to 1, and antagonists with short duration of action produce rel DR values that approaches the dose ratio value obtained for antagonist treatment alone.

T1 sequence (P35367 whole entry): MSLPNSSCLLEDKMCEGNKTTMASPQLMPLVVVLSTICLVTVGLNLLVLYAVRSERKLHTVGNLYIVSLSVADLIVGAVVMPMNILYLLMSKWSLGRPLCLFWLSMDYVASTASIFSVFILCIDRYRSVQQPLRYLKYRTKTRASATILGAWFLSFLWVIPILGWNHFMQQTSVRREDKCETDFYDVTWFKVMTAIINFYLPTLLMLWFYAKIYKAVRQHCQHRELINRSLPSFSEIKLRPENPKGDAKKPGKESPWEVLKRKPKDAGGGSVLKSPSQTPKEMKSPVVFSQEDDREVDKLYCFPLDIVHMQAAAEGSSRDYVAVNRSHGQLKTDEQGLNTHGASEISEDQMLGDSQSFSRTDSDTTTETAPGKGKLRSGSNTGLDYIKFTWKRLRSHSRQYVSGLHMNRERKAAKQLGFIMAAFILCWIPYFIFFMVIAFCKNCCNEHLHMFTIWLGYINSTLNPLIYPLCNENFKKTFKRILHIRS
T2 sequence (Q9Y5N1 whole entry, species assumed): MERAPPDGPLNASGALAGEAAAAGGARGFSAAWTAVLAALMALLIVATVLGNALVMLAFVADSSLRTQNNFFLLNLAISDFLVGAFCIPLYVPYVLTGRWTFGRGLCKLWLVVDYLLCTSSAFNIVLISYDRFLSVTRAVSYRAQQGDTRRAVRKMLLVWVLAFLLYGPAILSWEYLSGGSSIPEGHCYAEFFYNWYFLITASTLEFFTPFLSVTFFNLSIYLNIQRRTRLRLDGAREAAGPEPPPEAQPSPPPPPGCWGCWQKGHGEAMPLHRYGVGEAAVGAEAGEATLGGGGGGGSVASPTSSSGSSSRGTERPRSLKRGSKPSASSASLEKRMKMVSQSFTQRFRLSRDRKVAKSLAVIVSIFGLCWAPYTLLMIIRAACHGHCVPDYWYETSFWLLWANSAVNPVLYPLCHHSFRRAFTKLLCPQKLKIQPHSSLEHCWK

Row | Ki (human H1 receptor [1]) [nM] | Kb (human H1 receptor [2]) [nM] | Ki (histamine H3 receptor) [nM] | SMILES | duration of action compared with azelastine (human H1 receptor [3])
1 | < 100 | < 100 | > 316 | CCCCc1cc(O[C@H]2CCN(CCCC(=O)NC(C)(C)C)C2)c2ncccc2c1 [Example 41, 4-{(3S)-3-[(6-butyl-8-quinolinyl)oxy]-1-pyrrolidinyl}-N-(1,1-dimethylethyl) butanamide] | –
2 | < 10 | – | > 316 | CCCCc1cc(OC2CCN(CCNC(=O)C(C)(C)C)CC2)c2ncccc2c1 [Example 72, N-(2-{4-[(6-butyl-8-quinolinyl)oxy]-1-piperidinyl}ethyl)-2,2-dimethyl propanamide] | longer duration of action than azelastine
3 | ~1000 | < 100 | > 316 | CCCCc1cc(O[C@H]2CCN(CCC(=O)N(CC)CC)C2)c2ncccc2c1 [Example 40, 3-{(3S)-3-[(6-butyl-8-quinolinyl)oxy]-1-pyrrolidinyl}-N,N-diethylpropanamide] | –
4 | < 10 | – | > 316 | CCCCc1cc(OC2CCN(C[C@H]3CC[C@H](C(=O)NCCC)CC3)CC2)c2ncccc2c1 [Example 45, Trans-4-({4-[(6-butyl-8-quinolinyl)oxy]-1-piperidinyl}methyl)-N-propylcyclohexane carboxamide] | –
5 | < 100 | – | > 3160 | CCCCc1cc(OC2CCN(CCCCC(=O)NCCCOC)CC2)c2ncccc2c1 [Example 26, 5-{4-[(6-butyl-8-quinolinyl)oxy]-1-piperidinyl}-N-[3-(methyloxy)propyl]pent-anamide] | –
6 | < 10 | – | > 316 | CCCCc1cc(OC2CCN(CCC(=O)N(CC)CC)CC2)c2ncccc2c1 [Example 7, 3-{4-[(6-Butyl-8-quinolinyl)oxy]-1-piperidinyl}-N,N-diethylpropanamide] | –
7 | < 10 | – | > 316 | CCCCc1cc(OC2CCN(CCNC(=O)CCC)CC2)c2ncccc2c1 [Example 74, N-(2-{4-[(6-butyl-8-quinolinyl)oxy]-1-piperidinyl}ethyl) butanamide] | –
8 | < 10 | – | > 316 | CCCCc1cc(OC2CCN(C[C@H]3CC[C@H](C(=O)NCCC(C)C)CC3)CC2)c2ncccc2c1 [Example 61, trans-4-({4-[(6-butyl-8-quinolinyl)oxy]-1-piperidinyl}methyl)-N-(3-methylbutyl) cyclohexane carboxamide] | –
9 | < 100 | – | > 316 | CCCCCCc1cc(OC2CCN(C[C@H]3CC[C@H](C(=O)NCCC)CC3)CC2)c2ncccc2c1 [Example 55, trans-4-({4-[(6-hexyl-8-quinolinyl)oxy]-1-piperidinyl}methyl)-N-propylcyclohexane carboxamide] | –
10 | < 100 | – | > 316 | CCCCCCc1cc(OC2CCN(C[C@H]3CC[C@H](C(=O)N4CCCCC4)CC3)CC2)c2ncccc2c1 [Example 51, 6-hexyl-8-[(1-{[trans-4-(1-piperidinylcarbonyl)cyclohexyl]methyl}-4-piperidinyl)oxy]quinoline] | –
11 | ~1000 | < 100 | ~100 | CCCCc1cc(O[C@H]2CCN(CCC(=O)N3CCCCC3)C2)c2ncccc2c1 [Example 38, 6-butyl-8-({(3S)-1-[3-oxo-3-(1-piperidinyl)propyl]-3-pyrrolidinyl}oxy)quinoline] | –
12 | < 100 | – | > 316 | CCCCc1cc(OC2CCN(C[C@H]3CC[C@H](C(=O)Nc4ccc(C)cc4)CC3)CC2)c2ncccc2c1 [Example 59, trans-4-({4-[(6-butyl-8-quinolinyl)oxy]-1-piperidinyl}methyl)-N-(4-methylphenyl) cyclohexane carboxamide] | –
13 | < 10 | – | > 3160 | CCCCc1cc(OC2CCN(CCC(=O)NCCCOC)CC2)c2ncccc2c1 [Example 16, 3-{4-[(6-butyl-8-quinolinyl)oxy]-1-piperidinyl}-N-[3-(methyloxy)propyl] propanamide] | –
14 | < 10 | – | > 316 | CCCCc1cc(OC2CCN(CCCCNC(=O)C(C)(C)C)CC2)c2ncccc2c1 [Example 67, N-(4-{4-[(6-butyl-8-quinolinyl)oxy]-1-piperidinyl}butyl)-2,2-dimethyl propanamide] | –
15 | < 10 | – | > 3160 | CCCCc1cc(OC2CCN(CCCC(=O)NCCC)CC2)c2ncccc2c1 [Example 22, 4-{4-[(6-butyl-8-quinolinyl)oxy]-1-piperidinyl}-N-propylbutanamide] | –
16 | < 100 | – | > 316 | CCCCCCc1cc(OC2CCN(C[C@H]3CC[C@H](C(=O)NCc4ccc(C)cc4)CC3)CC2)c2ncccc2c1 [Example 49, trans-4-({4-[(6-hexyl-8-quinolinyl)oxy]-1-piperidinyl}methyl)-N-[(4-methylphenyl)methyl]cyclohexane carboxamide] | –
17 | > 1000 | – | > 316 | CCCCc1cc(OC2CCN(CC(=O)NCCC)CC2)c2ncccc2c1 [Example 10, 2-{4-[(6-butyl-8-quinolinyl)oxy]-1-piperidinyl}-N-propylacetamide] | –
18 | < 10 | – | > 316 | CCCCc1cc(O[C@@H]2CCN(CCCC(=O)NC(C)(C)C)C2)c2ncccc2c1 [Example 37, 4-{(3R)-3-[(6-butyl-8-quinolinyl)oxy]-1-pyrrolidinyl}-N-(1,1-dimethylethyl) butanamide] | –
19 | < 100 | – | > 316 | CCCCc1cc(OC2CCN(CC3CCN(C(C)=O)CC3)CC2)c2ncccc2c1 [Example 1, 8-({1-[(1-Acetyl-4-piperidinyl)methyl]-4-piperidinyl}oxy)-6-butylquinoline] | –
20 | < 10 | – | > 316 | CCCCc1cc(OC2CCN(CCCc3nc(CCC)no3)CC2)c2ncccc2c1 [Example 87, 6-Butyl-8-({1-[3-(3-propyl-1,2,4-oxadiazol-5-yl)propyl]-4-piperidinyl}oxy)quinoline] | –
21 | < 100 | – | > 316 | CCCCc1cc(OC2CCN(CCCCNC(=O)C(C)C)CC2)c2ncccc2c1 [Example 66, N-(4-{4-[(6-butyl-8-quinolinyl)oxy]-1-piperidinyl}butyl)-2-methylpropanamide] | –
22 | < 100 | – | > 3160 | CCCCc1cc(OC2CCN(CCC(=O)NCC)CC2)c2ncccc2c1 [Example 15, 3-{4-[(6-butyl-8-quinolinyl)oxy]-1-piperidinyl}-N-ethylpropanamide] | –
23 | < 100 | – | > 316 | CCCCc1cc(OC2CCN(C[C@H]3CC[C@H](C(=O)NC(C)C)CC3)CC2)c2ncccc2c1 [Example 42, Trans-4-({4-[(6-butyl-8-quinolinyl)oxy]-1-piperidinyl}methyl)-N-(1-methylethyl)cyclohexanecarboxamide] | –
24 | < 10 | – | > 3160 | CCCCc1cc(OC2CCN(CCCCC(=O)N(CC)CC)CC2)c2ncccc2c1 [Example 27, 5-{4-[(6-butyl-8-quinolinyl)oxy]-1-piperidinyl}-N,N-diethylpentanamide] | –
